Data set [1] concerns A2780 cells. Briefly: Drug efficacy test with combined use of platinum preparation in tumor-bearing mouse model with subcutaneous transplantation of A2780 (carboplatin, Lipo, topotecan). As to conditions: for Median survival time: from start of drug administration, carboplatin 80 mg/kg ip, Lipo 0.5 mg/kg tail vein once a week x 2, topotecan 0.5 mg/kg tail vein once a day x 5, carboplatin once in the topotecan combination; for Number of animal deaths or euthanasias due to deterioration of condition: of 8 animals in group, same doses and schedules as median survival. Type of data set: in vivo, mice. The source says:
A platinum preparation (hereinafter, also referred to as carboplatin), the topotecan-containing liposome composition according to the embodiment of the present invention, and topotecan were used as test substances. Physiological saline (available from Otsuka Pharmaceutical Factory, Inc., hereinafter, also referred to as carboplatin solvent) was used for the dilution of carboplatin and topotecan. A 5% Otsuka glucose solution (available from Otsuka Pharmaceutical Factory, Inc., hereinafter, also referred to as Lipo solvent) was used for the dilution of Lipo.
(§1) 5×10^6 A2780 cells, which is a human ovarian cancer cell line, were subcutaneously transplanted into the flank of female BALB/cAJcl-nu/nu mice to form subcutaneous tumors. From 7 days after transplantation, mice were drug treated with carboplatin alone, Lipo of the present invention alone, topotecan alone, a combination of carboplatin and Lipo, and a combination of carboplatin and topotecan, and the effect of the drug treatment on the survival time of the mice was evaluated. In a case where a volume of tumor reached 2,000 mm^3 or in a case where significant deterioration of the condition was observed, the animals were euthanized and considered dead.
In the combination group of a carboplatin solvent and a Lipo solvent, the carboplatin solvent was administered by intraperitoneal administration, and the Lipo solvent was administered by tail vein administration once a week for 2 weeks. The carboplatin alone group was administered by intraperitoneal administration once a week for 2 weeks. The Lipo alone group was administered by tail vein administration once a week for 2 weeks. In the combination group of carboplatin and Lipo, carboplatin was administered by intraperitoneal administration once a week for 2 weeks, and Lipo was administered by tail vein administration once a week for 2 weeks. In the combination group of carboplatin and topotecan, carboplatin was administered as a single dose by intraperitoneal administration, and topotecan was administered by tail vein administration once a day for 5 days.
Groups 1 to 4 and 6 correspond to Comparative Examples, and Group 5 corresponds to Example. In Table 5, “Lipo” represents the topotecan-containing liposome composition according to the embodiment of the present invention, “Abdomen” represents intraperitoneal administration, “Tail” represents tail vein administration, “Once a week×2” represents once a week for 2 weeks, “Once a day×5” represents administration once a day for 5 days, and “Once” represents administration once during the test period.

For data set [2], the system named is A2780 cells. Briefly: Drug efficacy test with combined use of platinum preparation in tumor-bearing mouse model with subcutaneous transplantation of A2780 (carboplatin, Lipo, paclitaxel). Type of data set: in vivo, mice. The method, then: A platinum preparation (hereinafter, also referred to as carboplatin), the topotecan-containing liposome composition according to the embodiment of the present invention, and paclitaxel were used as test substances. Physiological saline (available from Otsuka Pharmaceutical Factory, Inc., hereinafter, also referred to as carboplatin solvent) was used for the dilution of carboplatin. A 10 mM histidine/9.4% sucrose solution (hereinafter, also referred to as Lipo solvent) was used for the dilution of Lipo. 12.5% CREMOPHOR (available from Sigma-Aldrich, LLC)/12.5% ethanol (available from Shonan Wako Junyaku K.K.)/75% physiological saline (available from Otsuka Pharmaceutical Factory, Inc.) was used for the dilution of paclitaxel.
as §1, with “alone,” for “alone, topotecan alone,”, “paclitaxel,” for “topotecan,”, “dead. […]” for “dead.”

Molecules are shown by their SMILES.

On to `CC[C@@]1(O)C(=O)OCc2c1cc1n(c2=O)Cc2cc3c(CN(C)C)c(O)ccc3nc2-1` [Topotecan, topotecan], for which, in the data set on A2780 cells [1], the Median survival time is reported as 12.9 days and the “Number of animal deaths or euthanasias due to deterioration of condition” value came to 0.
In the case of `N.N.O=C([O-])C1(C(=O)[O-])CCC1.[Pt+2]` [Carboplatin, carboplatin], the Median survival time in the data set with A2780 cells [1] came to 9.1 days; in the data set with A2780 cells [2] (from start of drug administration, carboplatin 80 mg/kg ip, Lipo 0.5 mg/kg tail vein, paclitaxel 20 mg/kg tail vein, single agents once a week x 2, combinations once), 10 days. The “Number of animal deaths or euthanasias due to deterioration of condition” value in the data set with A2780 cells [1] worked out at 0; with A2780 cells [2] (of 8 animals in group, same doses and schedules as median survival), 1.

The values are drawn from US12370214B2, “Combined pharmaceutical formulation comprising drug-containing liposome composition and platinum preparation” (FUJIFILM Corporation, priority 2018, dated 2025).
